Laboratory results from US10144746B2 (GLOBAL BLOOD THERAPEUTICS, INC., priority 2015, dated 2018).
Where a name gives a salt, the structure may show the parent alone.

target: Human plasma kallikrein (Homo sapiens (Human), UniProt P03952); test: In vitro plasma kallikrein inhibition assay (chromogenic substrate D-Pro-Phe-Arg-pNa, absorbance at 405 nm, IC50 determination); assay type: biochemical; conditions: not given
Sequence (P03952 391-638): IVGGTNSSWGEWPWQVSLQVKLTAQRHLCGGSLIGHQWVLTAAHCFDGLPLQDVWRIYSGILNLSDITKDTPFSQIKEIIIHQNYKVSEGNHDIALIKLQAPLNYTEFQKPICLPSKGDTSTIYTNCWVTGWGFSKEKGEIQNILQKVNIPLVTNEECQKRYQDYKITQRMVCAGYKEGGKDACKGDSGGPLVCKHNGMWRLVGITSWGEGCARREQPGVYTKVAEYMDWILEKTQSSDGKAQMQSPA
Sequence (P03952 20-390 partner): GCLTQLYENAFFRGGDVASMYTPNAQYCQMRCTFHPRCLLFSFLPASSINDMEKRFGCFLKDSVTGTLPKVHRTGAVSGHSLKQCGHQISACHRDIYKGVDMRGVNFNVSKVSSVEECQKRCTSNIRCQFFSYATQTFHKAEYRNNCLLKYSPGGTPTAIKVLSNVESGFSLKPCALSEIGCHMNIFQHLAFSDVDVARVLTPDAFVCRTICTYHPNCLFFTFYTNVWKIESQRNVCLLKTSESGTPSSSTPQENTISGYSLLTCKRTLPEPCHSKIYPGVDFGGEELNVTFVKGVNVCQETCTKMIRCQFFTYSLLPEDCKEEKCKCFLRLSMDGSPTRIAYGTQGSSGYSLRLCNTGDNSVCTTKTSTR

| Compound | KLKB1 pIC50 |
| --- | --- |
| NC(=NO)c1cc(F)c(CNC(=O)c2ccc3c(c2)[C@@H]2O[C@H]3c3ccc(-c4ccc(F)cc4F)cc32)c(F)c1 [Example 266, (1R,8S)-N-({2,6-difluoro-4-[N′-hydroxy-carbamimidoyl]phenyl}methyl)-12-(2,4-difluorophenyl)-15-oxatetracyclo[6.6.1.0^2,^7.0^9,1^4]-pentadeca-2,4,6,9,11,13-hexaene-4-carboxamide] | 6.99 |
| NC(=NO)c1ccc(CNC(=O)c2ccc3c(c2)[C@@H]2O[C@H]3c3ccc(-c4ccc(Cl)s4)cc32)cc1 [Example 276, (1S,8R)-12-(5-chlorothiophen-2-yl)-N-{[4-(N′-hydroxycarbamimidoyl)phenyl]methyl}-15-oxatetracyclo[6.6.1.0^2,^7.0^9,1^4] pentadeca-2,4,6,9,11,13-hexaene-4-carboxamide] | 4 |
| CON=C(N)c1ccc(CNC(=O)c2ccc3c(c2)[C@@H]2O[C@H]3c3ccc(-c4ccc(F)cc4)cc32)cc1 [Example 241, (1R,8S)-12-(4-fluorophenyl)-N-{[4-(N′-methoxy-carbamimidoyl)pheny]methyl}-15-oxatetracyclo-[6.6.1.0^2,^7.0^9,1^4]pentadeca-2,4,6,9,11,13-hexaene-4-carboxamide] | 4 |
| NC(=NO)c1ccc(CNC(=O)c2ccc3c(c2)[C@@H]2O[C@H]3c3ccc(-c4ccc(F)cc4F)cc32)cc1 [Example 203, (1R,8S)-12-(2,4-difluorophenyl)-N-{[4-(N′-hydroxycarbamimidoyl)phenyl]methyl}-15-oxatetracyclo[6.6.1.0^2,^7.0^9,1^4] pentadeca-2,4,6,9,11,13-hexaene-4-carboxamide] | 5.98 |
| Cc1cc(N)nc(C)c1CNC(=O)c1ccc2c(c1)C1OC2c2cc(N3CCN(C(=O)c4ccccc4)CC3)ccc21 (stereo not drawn) | 6.55 |

same assay, conditions: read-out: KLKB1 pIC50 (converted)

| Compound | IC50 |
| --- | --- |
| CCc1cc2c(cc1CC)C1OC2c2ccc(C(=O)NCc3c(C)cc(N)nc3C)cc21 (racemic) [Example 303, (±)-N-[(6-amino-2,4-dimethyl-pyridin-3-yl)methyl]-11,12-diethyl-15-oxatetracyclo [6.6.1.0^2,^7.0^9,1^4]pentadeca-2,4,6,9(14),10,12-hexaene-4-carboxamide] | 0.209 µM |
| Cc1cc(C(=N)N)ccc1CNC(=O)c1ccc2c(c1)[C@@H]1O[C@H]2c2ccc(-n3cccn3)cc21 (single isomer, unassigned) [Example 312] | 0.001 µM |
| COc1cc2c(cc1OC)C1OC2c2ccc(C(=O)NCc3c(C)cc(N)nc3C)cc21 (racemic) [Example 335, (±)-N-[(6-amino-2,4-dimethylpyridin-3-yl)methyl]-11,12-dimethoxy-15-oxatetracyclo[6.6.1.0^2,^7.0^9,1^4] pentadeca-2,4,6,9(14),10,12-hexaene-4-carboxamide] | 1.62 µM |
| Cc1nc(N)cc(C2=CCOC2)c1CNC(=O)c1ccc2c(c1)[C@@H]1O[C@H]2c2ccc(-c3ccc(F)cc3F)cc21 (single isomer, unassigned) [Example 267] | 0.0977 µM |
| N=C(N)c1ccc(CNC(=O)c2ccc3c(c2)[C@@H]2O[C@H]3c3ccc(-c4ccc(F)cc4F)cc32)cc1F (single isomer, unassigned) [Example 211] | 0.0117 µM |
| Cc1cc(N)nc(C)c1CNC(=O)c1ccc2c(c1)[C@@H]1O[C@H]2c2ccc(Cn3cc(Cl)cn3)cc21 (single isomer, unassigned) [Example 179] | 0.001 µM |
| CCc1cc(N)nc(C)c1CNC(=O)c1ccc2c(c1)C1OC2c2ccc(-c3ccc(C)cc3C#N)cc21 (racemic) [Example 136, (±)-N-[(6-amino-4-ethyl-2-methylpyridin-3-yl)methyl]-12-(2-cyano-4-methylphenyl)-15-oxatetracyclo[6.6.1.0^2,^7.0^9,1^4] pentadeca-2,4,6,9,11,13-hexaene-4-carboxamide] | 0.00398 µM |
| COc1cc(N)nc(C)c1CNC(=O)c1ccc2c(c1)C1OC2c2ccc(-c3c(C)cc(F)cc3F)cc21 (racemic) [Example 150, (±)-N-[(6-amino-4-methoxy-2-methylpyridin-3-yl)methyl]-12-(2,4-difluoro-6-methylphenyl)-15-oxatetracyclo[6.6.1.0^2,^7.0^9,1^4] pentadeca-2,4,6,9,11,13-hexaene-4-carboxamide] | 0.0347 µM |
| COc1ccc(-n2cnnn2)c(CNC(=O)c2ccc3c(c2)C2OC3c3ccc(-c4ccc(F)cc4F)cc32)c1 (racemic) [Example 127, (±)-12-(2,4-difluorophenyl)-N-{[5-methoxy-2-(1H-1,2,3,4-tetrazol-1-yl)phenyl]methyl}-15-oxatetracyclo[6.6.1.0^2,^7.0^9,1^4] pentadeca-2,4,6,9,11,13-hexaene-4-carboxamide] | 0.977 µM |
| Cc1cc(N)nc(C)c1CNC(=O)c1ccc2c(c1)[C@@H]1O[C@H]2c2ccc(CN3CCCN(C)C3=O)cc21 (single isomer, unassigned) [Example 235] | 0.0129 µM |
| CCOc1cc(N)nc(C)c1CNC(=O)c1ccc2c(c1)C1OC2c2ccc(-c3c(C)cc(F)cc3F)cc21 (racemic) [Example 151, (±)-N-[(6-amino-4-ethoxy-2-methylpyridin-3-yl)-methyl]-12-(2,4-difluoro-6-methylphenyl)-15-oxatetracyclo[6.6.1.0^2,^7.0^9,1^4] pentadeca-2,4,6,9,11,13-hexaene-4-carboxamide] | 0.195 µM |
| Cc1cc(N)nc(C)c1CNC(=O)c1ccc2c(c1)C1OC2c2ccc(-c3ccc(F)c4c3OCO4)cc21 (racemic) [Example 108, trifluoroacetate salt] | 0.0257 µM |
| CC(F)(F)c1ccc2c(c1)[C@H]1O[C@@H]2c2ccc(C(=O)NCc3ccc(C(=N)N)cc3)cc21 (single isomer, unassigned) [Example 281] | 0.01 µM |
| Cc1nc(N)cc(C2CC2)c1CNC(=O)c1ccc2c(c1)[C@@H]1O[C@H]2c2ccc(-c3cc[n+]([O-])cc3F)cc21 (single isomer, unassigned) [Example 278] | 0.0347 µM |
| CCc1cc(N)nc(CC)c1CNC(=O)c1ccc2c(c1)[C@@H]1O[C@H]2c2ccc(-c3ccc(F)cc3F)cc21 (single isomer, unassigned) [Example 248] | 2.57 µM |
| Cc1cc2c(c(C)c1CNC(=O)c1ccc3c(c1)C1OC3c3ccc(-c4ccc(F)cc4F)cc31)CNC2 (racemic) | 0.316 µM |
| Cc1cc(N)nc(C)c1CNC(=O)c1ccc2c(c1)C1OC2c2ccc(-c3ccc(Cl)c(F)c3F)cc21 (racemic) [Example 106] | 0.0229 µM |

| Compound | IC50 |
| --- | --- |
| Cc1cc(N)nc(C)c1CNC(=O)c1ccc2c(c1)[C@@H]1O[C@H]2c2ccc(-c3ccc(Cl)cc3C#N)cc21 (single isomer, unassigned) [Example 139] | 0.00302 µM |
| N=C(N)c1cc(F)c(CNC(=O)c2ccc3c(c2)[C@@H]2O[C@H]3c3ccc(N4CCS(=O)(=O)CC4)cc32)c(F)c1 (single isomer, unassigned) [Example 336] | 0.00501 µM |
| Cc1nc(N)cc(C(F)(F)F)c1CNC(=O)c1ccc2c(c1)[C@@H]1O[C@H]2c2ccc(-c3ccc(F)cc3F)cc21 (single isomer, unassigned) [Example 246] | 10.7 µM |
| Cc1nc(N)cc(C(C)C)c1CNC(=O)c1ccc2c(c1)[C@@H]1O[C@H]2c2ccc(-c3ccc(F)cc3F)cc21 (single isomer, unassigned) [Example 208] | 0.001 µM |
| CC(C)c1ccc2c(c1)[C@H]1O[C@@H]2c2ccc(C(=O)NCc3c(F)cc(C(=N)N)cc3F)cc21 (single isomer, unassigned) [Example 298] | 0.002 µM |
| Cc1nc(N)cc(Cl)c1CNC(=O)c1ccc2c(c1)[C@@H]1O[C@H]2c2ccc(-c3ccc(F)cc3F)cc21 (single isomer, unassigned) [Example 192] | 0.977 µM |
| Cc1cc(-c2ccc(F)cc2)cc2c1C1OC2c2cc(C(=O)NCc3ccc(C(=N)N)cc3)cc(F)c21 (racemic) [Example 396, (±)-N-[(4-carbamimidoylphenyl)methyl]-6-fluoro-12-(4-fluorophenyl)-10-methyl-15-oxatetracyclo[6.6.1.0^2,^7.0^9,1^4] pentadeca-2(7),3,5,9(14),10,12-hexaene-4-carboxamide] | 0.00501 µM |
| CCOC(=O)N=C(N)c1cc(F)c(CNC(=O)c2ccc3c(c2)[C@@H]2O[C@H]3c3ccc(-c4ccc(F)cc4F)cc32)c(F)c1 (single isomer, unassigned) [Example 269] | 1.23 µM |
| Cc1cc(N)nc(C)c1CNC(=O)c1ccc2c(c1)C1OC2c2ccc(-c3ncc(F)cc3F)cc21 (racemic) [Example 116, (±)-N-[(6-amino-2,4-dimethylpyridin-3-yl)-methyl]-12-(3,5-difluoropyridin-2-yl)-15-oxatetracyclo[6.6.1.0^2,^7.0^9,1^4] pentadeca-2,4,6,9,11,13-hexaene-4-carboxamide] | 0.0457 µM |
| Cc1nc(N)cc(C2CC2)c1CNC(=O)c1ccc2c(c1)C1OC2c2ccc(-c3ccc(F)cc3F)cc21 (racemic) [Example 180, (±)-N-[(6-amino-4-cyclopropyl-2-methylpyridin-3-yl)methyl]-12-(2,4-difluorophenyl)-15-oxatetracyclo[6.6.1.0^2,^7.0^9,1^4] pentadeca-2,4,6,9,11,13-hexaene-4-carboxamide] | 0.011 µM |
| Cc1cc(N)nc(C)c1CNC(=O)c1ccc2c(c1)[C@@H]1O[C@H]2c2ccc(Oc3ccn(C)n3)cc21 (single isomer, unassigned) [Example 185] | 2.24 µM |
| O=C(NCC1CNC1)c1ccc2c(c1)[C@@H]1O[C@H]2c2ccc(-c3ccc(F)cc3F)cc21 (single isomer, unassigned) [Example 323] | 100 µM |
| Cc1cc(N)nc(C)c1CNC(=O)c1ccc2c(c1)[C@@H]1O[C@H]2c2ccc(Oc3cccc(F)c3)cc21 (single isomer, unassigned) [Example 191] | 0.105 µM |
| N=C(N)c1ccc(CNC(=O)c2ccc3c(c2)[C@@H]2O[C@H]3c3ccccc32)cc1 (single isomer, unassigned) [Example 238] | 0.324 µM |
| Cc1nc(N)cc(C(C)C)c1CNC(=O)c1ccc2c(c1)[C@@H]1O[C@H]2c2ccc(-c3c(F)ccc[n+]3[O-])cc21 (single isomer, unassigned) [Example 289] | 0.123 µM |
| Cc1c(CNC(=O)c2ccc3c(c2)[C@@H]2O[C@H]3c3ccc(-c4ccccc4F)cc32)cnc(N)c1C (single isomer, unassigned) [Example 242] | 2.75 µM |
| Cc1nc(N)cc(C2CCOCC2)c1CNC(=O)c1ccc2c(c1)[C@@H]1O[C@H]2c2ccc(-c3ccc(F)cc3F)cc21 (single isomer, unassigned) [Example 247] | 0.00501 µM |
